Source: patent US10736971B2, “Peptide-based molecules for modulating car expression or accessibility and uses thereof” (Wright State University, priority 2015, dated 2020)
Residues, ends and D or L forms follow the SMILES beside them.

Key:
[1] = test system: primary human airway epithelia; assay: Epithelial integrity (TER, FITC-Dextran diffusion) and toxicity; format: cell-based
Method: In panel (A), epithelial cells were seeded on transwells and treated with a single dose of PBS, TAT-scramble or TAT-PDZ3 (TAT-CAR^Ex8 or TAT-ESAM) peptides (50 μM) daily for 16 days. Transepithelial resistance (TER) was measured every other day for 16 days to indicate the amount of epithelial polarization. […] Each condition represents the average of 4 replicates. (B) FITC-Dextran 4 kDa diffusion across treated epithelia in the absence of EDTA. […] (C) Pre-treatment with EDTA to disrupt tight junctions increased Dextran 4 kDa permeability in all conditions. FITC-Dextran 4 kDa was added to the apical membrane compartment and Dextran present in the basolateral media was measured and quantified. […] FITC-Dextran 70 kDa was added to the apical membrane compartment and Dextran in the basolateral media was measured and quantified.
(A) Primary human airway epithelial cells were treated with a single dose of PBS, TAT-scramble (50 μM), or TAT-PDZ1 peptides (50 μM) each day for 14 days. Transepithelial resistance (TER) was taken every other day for 14 days. No change in TER was noticeable upon treatment with TAT-PDZ1 peptides indicating similar epithelium formation. (B) FITC-Dextran 4 kDa diffusion across treated epithelia in the presence or absence of EDTA. There was no difference in Dextran 4 kDa diffusion among treatments indicating intact epithelial tight junctions. Pre-treatment with EDTA increased Dextran 4 kDa permeability similarly in all conditions indicating disruption of epithelial tight junctions. FITC-Dextran 4 kDa was added to the apical membrane and the diffused Dextran was collected from the basolateral media and measured. (C) There was no difference in Dextran 70 kDa diffusion among treatments indicating intact epithelial tight junctions. FITC-Dextran 70 kDa was added to the apical membrane and the diffused Dextran was collected from the basolateral media and measured.

[2] = test system: CAR^Ex8; assay: Western blot of CAR^Ex8 in well differentiated primary human airway epithelia; format: cell-based; details: versus control
Description: (A) Western blotting from human airway epithelia treated with either TAT-scramble or TAT-PDZ1 peptides (TAT-E6 or TAT-NET1). […] Actin was used to confirm equal protein loading.

[3] = test system: CAR^Ex8; assay: Western blot / apical surface biotinylation of CAR^Ex8 in MDCK epithelia; format: cell-based, canine
Description: (§1) MAGI-1 PDZ binding peptides (BP) can alter CAR^EX8 apical protein levels and AdV infection. […] A) MAGI-1 PDZ1 can rescue CAR^Ex8 expression while PDZ3 decreases CAR^EX8 expression. B) Peptides that bind to PDZ3 will prevent degradation of CAR^Ex8 and rescue CAR^EX8 expression and C) peptides that bind to PDZ1 will prevent rescue of CAR^Ex8 and […] CAR^Ex8 degradation. D) Apical surface-specific biotinylation of polarized MDCK epithelia treated with PDZ1 binding peptide decreases apical levels of CAR^EX8 while PDZ3 binding peptide increase apical CAR^EX8, relative to control. E) Treatment with PDZ3 binding peptide increases while PDZ1 binding peptide decreases AdV5-β-Gal entry as determined by qPCR for viral genomes (Vg). F) AdV5-Cre infection turns cells from red (uninfected) to green (infected) in tDT-mouse airway epithelial cells. Baseline infection in control-peptide treated airway epithelia show an even distribution of uninfected red cells and infected green cells.
(§2) (A) Western blotting of MDCK cells treated with either TAT-CAR^Ex8 or control TAT-CAR^Ex8-AA. […] (C) Polarized MDCK cells were treated with either TAT-CAR^Ex8 or TAT-ESAM and the apical surface subjected to apical surface biotinylation, followed by neutravidin pull down and Western blot of apical surface proteins. […] (E) TAT-cell permeable peptides interrupt MAGI-1-CAR^Ex8 interactions. […]

[4] = test system: AdV; assay: qPCR of AdV viral genome (transduction/entry) in MDCK epithelia; format: cell-based, canine; details: versus control
Description: as §1, §2

[5] = biological target: MAGI-1 PDZ1 domain (Homo sapiens, UniProt Q96QZ7); assay: Ligand binding assay with purified MAGI-1 PDZ1 domain
Chain of MAGI-1 PDZ1 domain (Q96QZ7 472-554 limits assumed): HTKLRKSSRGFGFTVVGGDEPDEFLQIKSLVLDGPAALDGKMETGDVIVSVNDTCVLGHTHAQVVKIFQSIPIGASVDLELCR
Description: Ligand binding assay between TAT-ESAM and purified MAGI-1 PDZ1 or PDZ-3.
MAGI-1 PDZ3 domain was used as a control.

[6] = test system: AdV; assay: qPCR of AdV viral genome in primary human airway epithelia; format: cell-based; details: versus control
[7] = test system: CAR^Ex8; assay: Immunocytochemistry of CAR^Ex8 in polarized MDCK cells; format: cell-based, canine; details: 50 μM
Description: CAR^Ex8 is localized mainly at the apical surface of polarized MDCK cells. […] Red (CAR^Ex8), Green (MAGI-1, a junctional protein), Blue (nucleus, DAPI). 60× oil immersion confocal microscopy.
(A) CAR^Ex8 (red) localizes mainly at the apical membrane of MDCK epithelial cells (see xz section). […] 60× oil immersion confocal microscopy.

Row | Structure (SMILES) | Transepithelial resistance (TER) ([1]; 50 μM daily for 16 days, versus control) | FITC-Dextran 70 kDa diffusion across epithelia ([1]; TAT-PDZ3 peptide study) | FITC-Dextran 4 kDa diffusion across epithelia ([1]; absence of EDTA, TAT-PDZ3 peptide study) | Toxicity to epithelia ([1]; primary human airway epithelia) | CAR^Ex8 protein level (Western blotting) [2] | CAR^Ex8 protein level (Western blotting) [3] | AdV genomic transduction / entry (qPCR of viral genome) [4] | Kd [5] [nM] | AdV genomic transduction / entry (qPCR of viral genome) [6] | Effect on junctional staining of MAGI-1 [7] | Immunolocalization of endogenous CAR^Ex8 [7]
1 | CC(C)C[C@H](NC(=O)[C@H](CO)NC(=O)CNC(=O)[C@H](C)NC(=O)[C@H](CCC(N)=O)NC(=O)[C@H](CO)NC(=O)[C@H](CCC(N)=O)NC(=O)[C@H](C)NC(=O)[C@H](CCC(N)=O)NC(=O)[C@@H]1CCCN1C(=O)[C@@H]1CCCN1C(=O)[C@H](CCCNC(=N)N)NC(=O)[C@H](CCCNC(=N)N)NC(=O)[C@H](CCCNC(=N)N)NC(=O)[C@H](CCC(N)=O)NC(=O)[C@H](CCCNC(=N)N)NC(=O)[C@H](CCCNC(=N)N)NC(=O)[C@H](CCCCN)NC(=O)[C@H](CCCCN)NC(=O)[C@H](CCCNC(=N)N)NC(=O)CN)C(=O)N[C@H](C(=O)O)C(C)C [TAT-ESAM] (H-GRKKRRQRRRPPQAQSQAGSLV-OH; N-terminus and C-terminus assumed) | No difference | no difference | no difference | no overt toxicity | – | – | – | – | – | – | –
2 | CC(C)C[C@H](NC(=O)[C@H](CCC(N)=O)NC(=O)[C@@H](NC(=O)[C@H](CCC(=O)O)NC(=O)[C@H](CCCNC(=N)N)NC(=O)[C@H](CCCNC(=N)N)NC(=O)[C@@H](NC(=O)[C@H](CCCNC(=N)N)NC(=O)[C@H](CO)NC(=O)[C@H](CCC(N)=O)NC(=O)[C@@H]1CCCN1C(=O)[C@@H]1CCCN1C(=O)[C@H](CCCNC(=N)N)NC(=O)[C@H](CCCNC(=N)N)NC(=O)[C@H](CCCNC(=N)N)NC(=O)[C@H](CCC(N)=O)NC(=O)[C@H](CCCNC(=N)N)NC(=O)[C@H](CCCNC(=N)N)NC(=O)[C@H](CCCCN)NC(=O)[C@H](CCCCN)NC(=O)[C@H](CCCNC(=N)N)NC(=O)CN)[C@@H](C)O)[C@@H](C)O)C(=O)O [TAT-E6] (H-GRKKRRQRRRPPQSRTRRETQL-OH; N-terminus and C-terminus assumed) | – | – | – | – | marked decrease | marked decrease | significant decrease | 15 ± 4 | significant decrease | minor to no effect | delocalization of CAR^Ex8 to the nuclear compartment
